Measured values from US8680242B2, “Plasminogen receptor, polypeptides and antibodies thereof” (priority 2008, dated 2014).
Ends that are not written are not given here.

Experiments:
[1] = molecular target: T1, Plasminogen (Homo sapiens, UniProt P00747); assay: Plasminogen binding to BSA-coupled C-terminal Plg-RKT peptide coated on microtiter wells, detected with anti-plasminogen MAb
T1 construct: host or cells: peptide is synthetic
Excerpt: Our isolation method was consistent with exposure of the carboxyl-terminus of Plg-RKT (with its carboxyl-terminal lysine) on the cell surface and also with the ability of the carboxyl-terminal domain to bind to plasminogen. For verification, we tested whether a synthetic peptide, corresponding to the C-terminus of Plg-RKT could bind plasminogen. The peptide, CEQSKLFSDK (SEQ ID NO: 33) corresponding to the ten C-terminal amino acids of Plg-RKT with cysteine substituted for R138) was coupled to bovine serum albumin (BSA) and then coated onto wells of microtiter plates at 10 μg/ml. The wells were blocked with 5% BSA. Plasminogen (0.2 μM) was incubated with the wells, followed by our anti-plasminogen MAb^36 and detection with HRP-conjugated goat anti-mouse IgG (Biosource, Camarillo, Calif.). Plasminogen bound to the peptide in a concentration dependent manner with 50% maximal binding achieved at a plasminogen concentration of ˜10 nM. The binding was specific because it was blocked in the presence of epsilon-aminocaproic acid (EACA), consistent with the ability of EACA to inhibit plasminogen binding to differentiated Hoxa9-ER4 cells. […] In controls for the detection method, O.D.490 values obtained using an isotype control antibody or in the absence of added plasminogen were <5% of the values for plasminogen binding to the BSA-coupled peptide detected with anti-plasminogen MAb.

[2] = molecular target: T2, biotinylated plasminogen (Homo sapiens, UniProt P00747); assay: Direct binding of biotinylated plasminogen to immobilized peptide (streptavidin-HRP)
T2 construct: host or cells: peptide is synthetic
Method: (§1) Mab36Al2 or control rat IgG2A was incubated with the Plg-RKT polypeptide, CEQSKLFSDK (SEQ ID NO: 33), coupled to BSA and immobilized on microtiter wells. In these assays, 200 nM biotinylated plasminogen was then added and plasminogen binding was detected with streptavidin-HRP.
(§2) In other assays to define the ligand recognition specificity of Plg-RKT for plasminogen. the Plg-RKT polypeptide, CEQSKLFSDK (SEQ ID NO: 33), was coupled to microtiter wells. Plasminogen was directly biotinylated and then incubated with the immobilized peptide and detected with streptavidin-HRP, as above. […] (K1-3 is comprised of the plasminogen amino acid sequences, Tyr^79-Val^337 or Tyr^79-Val^353. K4 is contained within the plasminogen amino acid sequences, Val^354-Ala^439. K5-PD is contained within the plasminogen amino acid sequences, Val^442-Asn^790 and contains kringle 5 as well as the latent protease domain.)

[3] = test system: plasminogen binding to the Plg-RKT polypeptide, CEQSKLFSDK (SEQ ID NO: 33); assay: Inhibition of biotinylated plasminogen binding to immobilized Plg-RKT C-terminal peptide (streptavidin-HRP); set-up: species or system mouse
Method: as §1
(§3) We tested the ability of a peptide, CEQSRFFIDK (SEQ ID NO: 34), corresponding to the C terminus of human Plg-RKT (residues 139-147), to inhibit the binding of biotinylated-plasminogen to the C-terminal peptide CEQSKLFSDK (SEQ ID NO: 33), of mouse Plg-RKT when CEQSKLFSDK (SEQ ID NO: 33), was coupled to BSA and immobilized to microtiter plates as described above. […] Thus, the interaction of plasminogen with the C-terminal peptide of Plg-RKT requires the presence of a C-terminal lysine residue.
as §2

[4] = molecular target: T3, plasminogen binding to the Plg-RKT polypeptide, CEQSKLFSDK (SEQ ID NO: 33) (Mus musculus, UniProt Q9D3P8, R138C); assay: as above; details: plasminogen domains from elastase digestion
T3 construct: host or cells: peptide is synthetic
Method: as §1, §3, §2

T2 sequence (P00747 20-810 limits assumed): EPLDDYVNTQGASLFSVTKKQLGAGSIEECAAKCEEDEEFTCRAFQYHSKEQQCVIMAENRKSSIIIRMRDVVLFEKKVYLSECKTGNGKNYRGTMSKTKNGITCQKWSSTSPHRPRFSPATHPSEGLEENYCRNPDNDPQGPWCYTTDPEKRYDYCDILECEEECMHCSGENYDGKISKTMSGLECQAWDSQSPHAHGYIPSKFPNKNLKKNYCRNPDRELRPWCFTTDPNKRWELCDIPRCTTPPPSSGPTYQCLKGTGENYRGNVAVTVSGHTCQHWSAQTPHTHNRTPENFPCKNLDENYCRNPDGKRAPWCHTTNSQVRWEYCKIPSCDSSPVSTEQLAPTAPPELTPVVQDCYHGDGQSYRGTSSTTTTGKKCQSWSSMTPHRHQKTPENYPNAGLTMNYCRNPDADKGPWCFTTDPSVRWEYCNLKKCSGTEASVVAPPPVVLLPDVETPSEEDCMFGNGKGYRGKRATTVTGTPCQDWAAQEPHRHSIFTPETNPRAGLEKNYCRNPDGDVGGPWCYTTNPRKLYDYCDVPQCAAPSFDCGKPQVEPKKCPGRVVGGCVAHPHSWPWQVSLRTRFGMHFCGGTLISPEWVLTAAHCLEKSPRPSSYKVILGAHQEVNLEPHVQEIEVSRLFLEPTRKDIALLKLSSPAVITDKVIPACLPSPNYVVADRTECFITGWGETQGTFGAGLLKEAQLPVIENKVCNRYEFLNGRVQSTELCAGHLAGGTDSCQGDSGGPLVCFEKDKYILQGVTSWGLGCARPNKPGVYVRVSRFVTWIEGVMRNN
T1 sequence (P00747 20-810 limits assumed): as above

Molecule	inhibition of plasminogen binding to immobilized CEQSKLFSDK (in words) [3]	order of effectiveness in inhibiting plasminogen interaction with immobilized CEQSKLFSDK [4]	other results
NCCCCCC(=O)O [epsilon-aminocaproic acid]	–	–	effect on plasminogen binding to the peptide CEQSKLFSDK ([1]; in the presence of EACA): blocked
CEQSKLFSDK [CEQSKLFSDK]	–	–	biotinylated-Plg binding to the immobilized peptide [2]: concentration-dependent manner
CEQSRFFIDA [mutant peptide with the C-terminal K replaced with A, reference compound]	not affected	–	–
CEQSRFFIDK [CEQSRFFIDK]	inhibited in a dose-dependent manner	–	–
CEQSRFFIDK [peptide with R142 replaced with K, human C-terminal peptide with R142 replaced with K]	more effective competitor	–	–
KDSFLKSQEC (listed as Mus musculus) [reverse peptide control, reference compound]	–	–	biotinylated-Plg binding to the immobilized peptide [2]: no biotinylated-Plg binding; nonspecific plasminogen binding, relative to binding to CEQSKLFSDK ([1]; control peptide on wells): < 10%
Plg: plasminogen, precursor of plasmin with five kringle domains and a serine protease domain	–	Plg>K1-3>K5>K4	–
K5: plasminogen fragment within Val442-Asn790, kringle 5 and the latent protease domain (protein) VVAPPPVVLLPDVETPSEEDCMFGNGKGYRGKRATTVTGTPCQDWAAQEPHRHSIFTPETNPRAGLEKNYCRNPDGDVGGPWCYTTNPRKLYDYCDVPQCAAPSFDCGKPQVEPKKCPGRVVGGCVAHPHSWPWQVSLRTRFGMHFCGGTLISPEWVLTAAHCLEKSPRPSSYKVILGAHQEVNLEPHVQEIEVSRLFLEPTRKDIALLKLSSPAVITDKVIPACLPSPNYVVADRTECFITGWGETQGTFGAGLLKEAQLPVIENKVCNRYEFLNGRVQSTELCAGHLAGGTDSCQGDSGGPLVCFEKDKYILQGVTSWGLGCARPNKPGVYVRVSRFVTWIEGVMRN	–	Plg>K1-3>K5>K4	–
K1-3: plasminogen fragment Tyr79-Val337 or Tyr79-Val353, obtained by elastase digestion (protein) YLSECKTGNGKNYRGTMSKTKNGITCQKWSSTSPHRPRFSPATHPSEGLEENYCRNPDNDPQGPWCYTTDPEKRYDYCDILECEEECMHCSGENYDGKISKTMSGLECQAWDSQSPHAHGYIPSKFPNKNLKKNYCRNPDRELRPWCFTTDPNKRWELCDIPRCTTPPPSSGPTYQCLKGTGENYRGNVAVTVSGHTCQHWSAQTPHTHNRTPENFPCKNLDENYCRNPDGKRAPWCHTTNSQVRWEYCKIPSCDSSPV	–	Plg>K1-3>K5>K4	–
